Read-outs that look alike come from different tables or passages of the source. One block for each compound: values may come before it.
Assays:
[1] = system: paclitaxel binding site of microtubules; assay: Binding of Flutax-2 to cross-linked microtubules by fluorescence anisotropy; parameters: species or system bovine
Description: The intensity of fluorescence of Flutax-2 changes very little with the binding to microtubules. There is a small change in the excitation maximum from 494 nm to 495 nm (isosbestic point at 500 nm ) and a blue shift in emission from 523 nm to 520 nm (not shown here; isosbestic point at 525 nm; Diaz, J. F. et al.). […] The excitation anisotropy spectrum of a 50 nM solution of microtubule sites/Flutax-2 was compared with the spectrum of a similar solution in which the binding sites were blocked by an excess of paclitaxel and of free Flutax-2. […] The anisotropy values determined for the 495 nm band (emission 520 nm; GAB buffer containing glycerol, 25° C.) were: free Flutax-2 (50 nm ), rmin=0.055; in the presence of microtubules blocked with paclitaxel, r=0.060; Flutax-2 specifically bound to the microtubules, rmax=0.29 (the last was determined by valuation of 50 nm Flutax-2 with growing concentrations of microtubules). These changes are consistent with a strong immobilisation of the fluorophore by the binding. […]
Tubulin from bovine brain was purified and stored, and its concentration was measured as has been described (Andreu, J. M. et al.). […]
Fluorescence spectra were obtained corrected with a Fluorolog-3-221 photon count instrument (Jobin Yvon-Spex, Longlumean, France), with an emission bandwidth of 5 nm and excitation of […] at 25° C. […] The multiple measurements of anisotropy were made with a PolarStar microplate reader (BMG Labtechnologies, Offenburg, Germany) at 25° C. The solutions were excited with 200 pulses of vertically polarised light (band-pass filter 485-P, 480-492 nm ) and the emission was simultaneously analysed with vertical and horizontal polarisation filters (band-pass 520-P, 515-550 nm ). […] The values of well blanks with microtubules and without Flutex-2 were subtracted from the values of fluorescence intensity (the blanks typically represented less than 4% of the measurement). […]

[2] = system: paclitaxel binding site of microtubules; assay: Competition test: displacement of Flutax-2 from microtubules, fluorescence anisotropy in microplate; parameters: species or system bovine; conditions: for equilibrium binding constant to microtubules (numerical analysis of displacement isotherms) / displacement of Flutax-2 / inhibition of the anisotropy of microtubule Flutax-2: 50 nM Flutax-2/50 nM microtubule sites; for equilibrium binding constant to microtubules (numerical analysis of displacement isotherms): 25° C., mean of several determinations; for equilibrium constant K, best fit of competition isotherm (FIG. 2): GAB-GDP buffer at 25° C., 50 nM Flutax-2, 50 nM sites
Description: Using Flutax-2 as a reference probe for the binding site to paclitaxel, the binding of other non-fluorescent ligands which displace Flutax-2 from the microtubules (see FIG. 1) can easily be measured by the changes in […] fluorescence properties in a competition test. The change of fluorescence anisotropy, which was analysed in 96-well plates with a microplate reader, was used. […] Baccatine III is equivalent to the taxane ring system, in which the group C-13 OH substitutes the paclitaxel side chain (see chemical structures in FIG. 2). The C-13 side chain has previously been considered as an essential determinant for recognition of paclitaxel.
Tubulin from bovine brain was purified and stored, and its concentration was measured as has been described (Andreu, J. M. et al.). Prior to its use it was balanced in 10 mM sodium phosphate, 1 mM EGTA, 0.1 mM GTP, 3.5M glycerol pH 6.8, with a Sephadex G-25 gravity column used cold, and it was centrifuged cold for 10 min at 50,000 in a TLA 100.4 rotor (Beckman) cold. The 50 μM tubulin was made 6 mM in MgCl2 (in other words, glycerol assembly buffer GAB, final pH 6.5) and 1 mM GTP, it was assembled in microtubules at 37° C. and these were gently cross-linked with 20 mM glutaraldehyde, the reaction being stopped with NaBH4 as has been described (Diaz, J. F. et al.). […] The cross-linked microtubules were dialysed against GAB-0.1 mM nucleotide (GTP or GDP) for more than 16 h, cold, in dialysis cassettes (Pierce) and were conserved frozen drop by drop in liquid nitrogen, or at 4° C. with 0.05% of sodium azide. This conservation method for the cross-linked microtubules by means of dialysis against a conservation and cryopreservation buffer is claimed in the present invention.
These competitive measurements were made with the polarisation plate reader. A solution of known concentrations of binding sites of microtubule and Flutax-2, both close to 50 nM, in GAB-GDP buffer, was freshly prepared starting from the concentrated reserves of cross-linked microtubules and Flutax-2. It was dispensed in aliquots of 200 μL (final volume) at room temperature in 96-well plates (Costar cat. No. 3599, the wells at the edges were not used). […] The ligands to test were added in small volumes of DMSO (concentration of final DMSO 2% v/v) in order to make the desired duplicated concentrations. A check was also made that the paclitaxel was not adsorbed onto the plate during the test, using ^3H-paclitaxel and a scintillation counter. The wells without protein and without Flutax-2 were included for calibration and background measurements respectively (see anisotropy measurements, above). The plates were stirred by rotation for 10 minutes and were measured twice within 30-90 minutes following balancing at 25° C. in the microplate reader. The anisotropy data of Flutax-2 was calculated with the evaluation software (BMG) and was traced against the total concentration of the competitor.
With the aim of measuring the binding affinity of a ligand (L) which displaces the reference ligand Flutax-2 from its microtubule binding site (S), unitary stoichiometry was assumed, with the fractional binding of Flutax-2 starting from the anisotropy being determined as [F]b/[S]0=[F]0(r−rmin)/[S]0(rmax−rmin) and the following expressions were applied K(F)=[SF]/[S] [F] [9] K(B)=[SB]/[S] [B] [10] [F]=[F]0−[SF] [11] [L]=[L]0−[SL] [12]

[3] = Description: Standard concentrated solutions were prepared and were kept at −20° C. in a dry atmosphere. The paclitaxel (from the National Cancer Institute, Bethesda, Md.) was measured spectroscopically at 273 nm following dilution in methanol, using an extinction coefficient of 1,700 M^−1 cm^−1 (Diaz, J. F. and Andreu, J. M.) ^3H-paclitaxel (4 Ci mmol^−1) was obtained from Moravek Biochemicals (Brea, Calif.), Docetaxel (Taxotere) was supplied by Rhône-Poulenc Rorer (Antony, France). […] The methyl ester of the C-13 side chain of paclitaxel was supplied by E. Baloglu and D. G. I. Kingston of the Virginia Polytechnic Institute (Blacksburg, Va.).
[4] = system: cross-linked microtubules; assay: Concentration of taxoid binding sites by sedimentation and spectrophotometric measurement of Flutax-2; parameters: species or system bovine; conditions: 5 μM Flutax-2, GAB-GDP buffer, 25° C.
Description: Their concentration of total tubulin was measured after diluting them in 1% SDS using an extinction coefficient of 107,000 M^−1 cm^−1 at 275 nm (Diaz, J. F. and Andreu, J. M.). […] The concentration of binding sites of taxoid was determined by addition of growing concentrations of microtubules cross-linked to 5 μM Flutax-2 in the GAB-GDP buffer, sedimentation (Diaz, J. F. et al., 50,000 rpm in a Beckman TLA 120 rotor at 25° C.) and spectrophotometric measurement of Flutax-2. It was observed that the preparations of cross-linked microtubules bound 0.75±0.05 of Flutax-2 per total tubulin (in other words, a minimum of 95% of the bound tubulin was active binding this ligand). The control measurements using ^3H-paclitaxel and liquid scintillation gave values similar to Flutax-2. Once the anisotropy values of Flutax bound to microtubule and free were determined, the number of sites could also be determined by valuation of diluted solutions of microtubules cross-linked with Flutax-2 (see further below). The concentration of binding sites of taxoids of the preparations of cross-linked microtubules turned out to be stable in liquid nitrogen, decaying at speeds between 0.02 and 0.05 day^−1 at 4° C. (mean lives of five and two weeks respectively). The cross-linked microtubules were used within one average life starting from the preparation.

[5] = system: paclitaxel binding site of microtubules; assay: Displacement of 3H-paclitaxel from microtubules by sedimentation and scintillation count; conditions: 1 mg mL^−1 bovine serum albumin present
From the text: In a series of control measurements, the displacement of the interaction of ^3H-paclitaxel with microtubules by baccatine III and Flutax-2 was evidenced by sedimentation and scintillation count. […] This confirmed that baccatine III is recognised by the paclitaxel binding site of microtubules. Nevertheless, with the aim of having the majority of the radioactive ^3H-paclitaxel tracer in solution, instead of being absorbed into the polycarbonate tube of the table-top ultracentrifuge, it was necessary to include 1 mg mL^−1 of bovine serum albumin, which binds the paclitaxel (keeping it available for interaction with the microtubules) and also the Flutax-2 (decreasing its apparent affinity). These adsorption processes make it impossible to have any direct rigorous measurement of the affinity of the binding of paclitaxel to microtubules in our hands, and therefore of the affinity of its competitors using paclitaxel as a reference ligand in these diluted tests. The additional disadvantages of the binding tests of ^3H-paclitaxel in comparison with the homogeneous test of the anisotropy of fluorescent taxoid are the operations of centrifugation, separation and radioactive measurement that are required. […]

cancellation of the binding of Flutax-2 to microtubules ([1]; 10 μM paclitaxel): entirely annulled | equilibrium binding constant to microtubules (numerical analysis of displacement isotherms) [2]: (3.7±1.5)×10^7 M^−1 | equilibrium constant K, best fit of competition isotherm (FIG. 2) [2]: 3.2e+07 M⁻¹
SMILES: CC(=O)O[C@H]1C(=O)[C@@]2(C)[C@H]([C@H](OC(=O)c3ccccc3)[C@]3(O)C[C@H](OC(=O)[C@H](O)[C@@H](NC(=O)c4ccccc4)c4ccccc4)C(C)=C1C3(C)C)[C@]1(OC(C)=O)CO[C@@H]1C[C@@H]2O [paclitaxel]

solubility [3]: ≥ 750 µM | displacement of Flutax-2 / inhibition of the anisotropy of microtubule Flutax-2 [2]: inactive | equilibrium binding constant to microtubules (numerical analysis of displacement isotherms) [2]: < 10^3 M^−1 | K of simulated low affinity binding (line through data, FIG. 2) ([2]; simulation, data similar to controls): 700 M⁻¹
SMILES: COC(=O)C(O)C(NC(=O)c1ccccc1)c1ccccc1 (stereo not shown) [methyl ester of the C-13 side chain, methyl ester of the C-13 side chain of paclitaxel]

equilibrium binding constant of Flutax-2 (FIG. 2 legend) ([1]; GAB-GDP buffer at 25° C.): 1.5e+08 M⁻¹ | equilibrium constant of the binding Kb (binding isotherm from change of anisotropy) ([1]; GAB-GDP buffer at 25° C.): 1.15e+08 M⁻¹ | Flutax-2 bound per total tubulin [4]: 0.75±0.05 | apparent affinity compared with fluorescence anisotropy tests [5]: seven times lower
SMILES: CC(=O)O[C@H]1C(=O)[C@]2(C)[C@@H](OC(=O)[C@H](C)NC(=O)c3ccc4c(c3)C(=O)OC43c4cc(F)c(O)cc4Oc4cc(O)c(F)cc43)C[C@H]3OC[C@@]3(OC(C)=O)[C@H]2[C@H](OC(=O)c2ccccc2)[C@]2(O)C[C@H](OC(=O)[C@H](O)[C@@H](NC(=O)c3ccccc3)c3ccccc3)C(C)=C1C2(C)C [Flutax-2, 7-O-[N-(2,7-difluoro-4′-fluoresceincarbonyl)-L-alanyl]paclitaxel]

SMILES: CC(=O)O[C@H]1C(=O)[C@@]2(C)[C@H]([C@H](OC(=O)c3ccccc3)[C@]3(O)C[C@H](O)C(C)=C1C3(C)C)[C@]1(OC(C)=O)CO[C@@H]1C[C@@H]2O [baccatine III, Baccatine III]
solubility ([3]; pH 6.5): soluble at the concentrations used | displacement of Flutax-2 / inhibition of the anisotropy of microtubule Flutax-2 [2]: entirely inhibited | equilibrium binding constant to microtubules (numerical analysis of displacement isotherms) [2]: 1.5±0.5)×10^5 M^−1 | equilibrium constant K, best fit of competition isotherm (FIG. 2) [2]: 150000 M⁻¹ | total concentrations needed for inhibition relative to paclitaxel ([2]; entire inhibition of anisotropy): approximately 200 times

equilibrium binding constant to microtubules (numerical analysis of displacement isotherms) [2]: (6.0±2.3)×10^7 M^−1 | equilibrium constant K, best fit of competition isotherm (FIG. 2) [2]: 8e+07 M⁻¹ | ratio of affinities of docetaxel to paclitaxel ([2]; on the basis of the individual experiments): 2.7±0.3
SMILES: CC(=O)O[C@@]12CO[C@@H]1C[C@H](O)[C@@]1(C)C(=O)[C@H](O)C3=C(C)[C@@H](OC(=O)[C@H](O)[C@@H](NC(=O)OC(C)(C)C)c4ccccc4)C[C@@](O)([C@@H](OC(=O)c4ccccc4)[C@H]21)C3(C)C [docetaxel, Docetaxel]
